Values of other authors in patent US20070027075A1, “Compositions and methods for targeted drug delivery” (priority 2003, published 2007).

Molecular target: prostate-specific antigen (Homo sapiens, UniProt P07288)
Details: PSA

Sequence of prostate-specific antigen (P07288 25-261): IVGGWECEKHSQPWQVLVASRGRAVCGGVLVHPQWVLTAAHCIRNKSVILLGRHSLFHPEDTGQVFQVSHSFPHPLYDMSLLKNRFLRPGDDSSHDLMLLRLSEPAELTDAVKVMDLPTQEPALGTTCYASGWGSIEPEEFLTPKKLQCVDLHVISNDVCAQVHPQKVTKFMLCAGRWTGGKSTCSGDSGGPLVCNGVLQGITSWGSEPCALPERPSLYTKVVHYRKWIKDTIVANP

## CVFTSDYAFC
  Kd: 8 µM
